Measurements published in patent publication US20050019357A1, “(2S,3R,4S)-4-hydroxyisoleucine-containing cosmetic compositions and methods of application” (Caster, priority 2003, published 2005).

Experiments:
[1] = system: TNS & CRAB-2 receptors; assay: cDNA-macroarrays confirmed by quantitative RT-PCR on messenger RNAs of epidermal cells: TNS & CRAB-2 receptor expression; format: cell-based
[2] = system: JL1-R1 receptor; assay: cDNA-macroarrays confirmed by quantitative RT-PCR on messenger RNAs of epidermal cells: JL1-R1 receptor expression; format: cell-based
[3] = system: Cellular Retinoic Acid Binding Protein (CRAB-P-2); assay: cDNA-macroarrays confirmed by quantitative RT-PCR on messenger RNAs of epidermal cells: CRAB-P-2 expression; format: cell-based
[4] = system: men with alopecia (proportion of hair in the telogen phase greater than 15%); assay: Anti-hair loss study by videotrichogram on volunteers with alopecia; format: in vivo, human; conditions: used as active ingredient in an anti-hair loss composition already containing Lentinus edodes extract, procyanidolic oligomers and Cananga odorata essential oil
Description: The anti-ageing effect on the epidermis was confirmed in vivo in a study relating to the anti-hair loss properties of (2S,3R,4S)-4-hydroxyisoleucine carried out on volunteer subjects affected by alopecia, having a proportion of hair in the telogen phase greater than […] 15%. […] This anti-hair loss composition is described in application FR 2 776 184 of which the applicant is proprietor. It contains an aqueous extract of the mushroom Lentinus edodes rich in 1,3-β-D-1,6-β-D-glucan, procyanidolic oligomers extracted from grapeseed cuticle, and essential oil extracted from the flowers of Cananga odorata. […]
This study was carried out on a sample of 25 volunteers for each composition tested. The only people included in the study were men from 20 to 50 years old (average age of each group 37 years) with alopecia, that is to say having a proportion of hair in the telogen phase, determined by videotrichogram, greater than 15%.
The apparatus used is a videomicroscope equipped with a ×25 lens, which is mobile and optical fibre-based, linked to a computer system for image acquisition. The lens is placed directly over the zone to be studied, the image is digitized, recorded and analysed with the aid of a specific software (COUNTHAIR®) developed by the company DERMSCAN which makes it possible to count the hair strands and to measure their length. […]

[5] = system: Bullous Pemphigoid Antigen 1 (BPAG-1); assay: cDNA-macroarrays confirmed by quantitative RT-PCR on messenger RNAs of epidermal cells: BPAG-1 expression; format: cell-based

Compound: C[C@@H]([C@H](C)O)[C@H](N)C(=O)O [(2S,3R,4S)-4-hydroxyisoleucine]
- expression of the TNS & CRAB-2 receptors [1]: decrease in the expression
- expression of the JL1-R1 receptor [2]: significant overexpression
- expression of Cellular Retinoic Acid Binding Protein (CRAB-P-2) [3]: significant underexpression
- anti-hair loss properties [4]: particularly effective
- expression of Bullous Pemphigoid Antigen 1 (BPAG-1) [5]: significant overexpression
